# Results taken from US20260274892A1, “MACROCYCLIC BROAD SPECTRUM ANTIBIOTICS” (RQx Pharmaceuticals, Inc., priority 2017, published 2026).
# Columns and labels:
# [1] = tested on: Methicillin Resistant Staphylococcus aureus strain USA 200; experiment: Minimum inhibitory concentration (MIC), CLSI broth micro-dilution, S. aureus; format: cell-based; settings: Staphylococcus aureus, MRSA / USA200, MRSA USA 200, cation adjusted Mueller Hinton Broth + 0.002% Tween-80, 35° C., 22 hours
# Method in brief: (§1)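 Colonies grown 20 h at 35° C on Trypticase Soy agar (MRSA) or Luria agar (E. coli) were suspended in cation-adjusted Mueller Hinton broth with 0.002% Tween-80. Suspensions were added at OD600 0.0005 to 10-point twofold compound dilutions, then incubated 22 h at 35° C.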
# [2] = tested on: Escherichia coli ATCC 25922; experiment: Minimum inhibitory concentration (MIC), CLSI broth micro-dilution, E. coli; format: cell-based; settings: Escherichia coli, ATCC25922, 22 h
# Method in brief: as §1
# [3] = Table 6, cation adjusted Mueller Hinton Broth + 0.002% Tween-80, 35° C.
MIC ([1]; Table 6) [µM],"MIC [2, 3] [µM]",MIC ([1]; Table 8) [µM],"MIC ([2]; Table 8, cation adjusted Mueller Hinton Broth + 0.002% Tween-80, 35° C.) [µM]",SMILES
0.033,0.2,,,"CCc1ccc(C#Cc2nc(C)c(C(=O)N[C@@H](CCN)C(=O)N(C)[C@@H]3C(=O)N[C@@H](C)C(=O)N[C@H](C(=O)NCC#N)Cc4ccc(OCCN)c(c4)-c4cc3ccc4OCCN)c(C)n2)cc1 (racemic) [Compound 307, rac-(8S,11S,14S)-3,18-bis(2-aminoethoxy)-N-(cyanomethyl)-11-methyl-14-[methyl-[rac-(2S)-4-amino-2-[[2-[2-(4-ethylphenyl)ethynyl]-4,6-dimethyl-pyrimidine-5-carbonyl]amino]butanoyl]amino]-10,13-dioxo-9,12-diazatricyclo[13.3.1.12,6]icosa-1(18),2(20),3,5,15(19),16-hexaene-8-carboxamide]"
0.012,0.097,,,"Cc1nc(-c2ccc(CC3CCCC3)cc2)ncc1C(=O)N[C@@H](CCN)C(=O)N(C)[C@@H]1C(=O)N[C@@H](C)C(=O)N[C@H](C(=O)NCC#N)Cc2ccc(OCCN)c(c2)-c2cc1ccc2OCCN (racemic) [Compound 218, rac-(8S,11S,14S)-3,18-bis(2-aminoethoxy)-N-(cyanomethyl)-11-methyl-14-[methyl-[rac-(2S)-4-amino-2-[[2-[4-(cyclopentylmethyl)phenyl]-4-methyl-pyrimidine-5-carbonyl]amino]butanoyl]amino]-10,13-dioxo-9,12-diazatricyclo[13.3.1.12,6]icosa-1(18),2(20),3,5,15(19),16-hexaene-8-carboxamide]"
,,1.2,0.58,"Cc1cc(-c2ccc(C(C)(C)C)cc2)nc(C)c1C(=O)N[C@@H](CCN)C(=O)N(C)[C@@H]1C(=O)N[C@@H](C)C(=O)N[C@H](C(=O)O)Cc2ccc(O)c(c2)-c2cc1ccc2OCCN (racemic) [Compound 644, rac-(8S,11S,14S)-18-(2-aminoethoxy)-3-hydroxy-11-methyl-14-[methyl-[rac-(2S)-4-amino-2-[[6-(4-tert-butylphenyl)-2,4-dimethyl-pyridine-3-carbonyl]amino]butanoyl]amino]-10,13-dioxo-9,12-diazatricyclo [13.3.1.12,6]icosa-1(18),2(20),3,5,15(19), 16-hexaene-8-carboxylic acid]"
0.11,4.8,,,"CCCCCCc1ccc(C(=O)N[C@@H](CCN)C(=O)N(CCN)[C@@H]2C(=O)N[C@@H](C)C(=O)N[C@H](C(=O)NCC#N)Cc3ccc(O)c(c3)-c3cc2ccc3O)c(C)c1 (racemic) [Compound 474, rac-(8S,11S,14S)-14-[2-aminoethyl-[rac-(2S)-4-amino-2-[(4-hexyl-2-methyl-benzoyl)amino]butanoyl]amino]-N-(cyanomethyl)-3,18-dihydroxy-11-methyl-10,13-dioxo-9,12-diazatricyclo[13.3.1.12,6]icosa-1(18),2(20),3,5,15(19),16-hexaene-8-carboxamide]"
0.023,1,,,"C[C@@H]1NC(=O)[C@@H](N(C)C(=O)[C@H](CCN)NC(=O)c2c(N)nc(-c3ccc(C(C)(C)C)cc3)nc2N)c2ccc(OCCN)c(c2)-c2cc(ccc2OCCN)C[C@@H](C(=O)NCC#N)NC1=O (racemic) [Compound 429, rac-(8S,11S,14S)-3,18-bis(2-aminoethoxy)-N-(cyanomethyl)-11-methyl-14-[methyl-[rac-(2S)-4-amino-2-[[4,6-diamino-2-(4-tert-butylphenyl)pyrimidine-5-carbonyl]amino]butanoyl]amino]-10,13-dioxo-9,12-diazatricyclo[13.3.1.12,6]icosa-1(18),2(20),3,5,15(19),16-hexaene-8-carboxamide]"
0.0078,0.063,,,"CCCCCCOc1ccc(-c2nc(C)c(C(=O)N[C@@H](CCN)C(=O)N(C)[C@@H]3C(=O)N[C@@H](C)C(=O)N[C@H](C(=O)NCC#N)Cc4ccc(OCCN)c(c4)-c4cc3ccc4OCCN)c(C)n2)cc1 (racemic) [Compound 332, rac-(8S,11S,14S)-3,18-bis(2-aminoethoxy)-N-(cyanomethyl)-11-methyl-14-[methyl-[rac-(2S)-4-amino-2-[[2-(4-hexoxyphenyl)-4,6-dimethyl-pyrimidine-5-carbonyl]amino]butanoyl]amino]-10,13-dioxo-9,12-diazatricyclo[13.3.1.12,6]icosa-1(18),2(20),3,5,15(19),16-hexaene-8-carboxamide]"

# The next lines start with the molecule.
SMILES,MIC ([1]; Table 6) [µM],"MIC [2, 3] [µM]",MIC ([1]; Table 8) [µM],"MIC ([2]; Table 8, cation adjusted Mueller Hinton Broth + 0.002% Tween-80, 35° C.) [µM]"
"Cc1nc([C@H]2CC[C@H](C(C)(C)C)CC2)nc(C)c1C(=O)N[C@@H](CCN)C(=O)N(C)[C@@H]1C(=O)N[C@@H](C)C(=O)N[C@H](C(=O)NCC#N)Cc2ccc(OCCN)c(c2)-c2cc1ccc2OCCN [Compound 296, rac-(8S,11S,14S)-3,18-bis(2-aminoethoxy)-N-(cyanomethyl)-11-methyl-14-[methyl-[rac-(2S)-4-amino-2-[[2-(4-tert-butylcyclohexyl)-4,6-dimethyl-pyrimidine-5-carbonyl]amino]butanoyl]amino]-10,13-dioxo-9,12-diazatricyclo[13.3.1.12,6]icosa-1(18),2(20),3,5,15(19),16-hexaene-8-carboxamide]",0.016,0.38,,
"Cc1nc(-c2ccc(C=C3CCCC3)cc2)nc(C)c1C(=O)N[C@@H](CCN)C(=O)N(C)[C@@H]1C(=O)N[C@@H](C)C(=O)N[C@H](C(=O)NCC#N)Cc2ccc(OCCN)c(c2)-c2cc1ccc2OCCN (racemic) [Compound 274, rac-(8S,11S,14S)-3,18-bis(2-aminoethoxy)-N-(cyanomethyl)-11-methyl-14-[methyl-[rac-(2S)-4-amino-2-[[2-[4-(cyclopentylidenemethyl)phenyl]-4,6-dimethyl-pyrimidine-5-carbonyl]amino]butanoyl]amino]-10,13-dioxo-9,12-diazatricyclo[13.3.1.12,6]icosa-1(18),2(20),3,5,15(19),16-hexaene-8-carboxamide]",0.023,0.063,,
"Cc1nc(-c2ccc(C3CCOCC3)cc2)ncc1C(=O)N[C@@H](CCN)C(=O)N(C)[C@@H]1C(=O)N[C@@H](C)C(=O)N[C@H](C(=O)NCC#N)Cc2ccc(OCCN)c(c2)-c2cc1ccc2OCCN (racemic) [Compound 231, rac-(8S,11S,14S)-3,18-bis(2-aminoethoxy)-N-(cyanomethyl)-11-methyl-14-[methyl-[rac-(2S)-4-amino-2-[[4-methyl-2-(4-tetrahydropyran-4-ylphenyl)pyrimidine-5-carbonyl]amino]butanoyl]amino]-10,13-dioxo-9,12-diazatricyclo[13.3.1.12,6]icosa-1(18),2(20),3,5,15(19),16-hexaene-8-carboxamide]",0.35,1.4,,
"Cc1nc(-c2ccc(OC3CCC(C)(C)CC3)cc2)nc(C)c1C(=O)N[C@@H](CCN)C(=O)N(C)[C@@H]1C(=O)N[C@@H](C)C(=O)N[C@H](C(=O)NCC#N)Cc2ccc(OCCN)c(c2)-c2cc1ccc2OCCN (racemic) [Compound 348, rac-(8S,11S,14S)-3,18-bis(2-aminoethoxy)-N-(cyanomethyl)-11-methyl-14-[methyl-[rac-(2S)-4-amino-2-[[2-[4-(4,4-dimethylcyclohexoxy)phenyl]-4,6-dimethyl-pyrimidine-5-carbonyl]amino]butanoyl]amino]-10,13-dioxo-9,12-diazatricyclo[13.3.1.12,6]icosa-1(18),2(20),3,5,15(19),16-hexaene-8-carboxamide]",0.023,0.19,,
